The target of the assay is Cathepsin D (Cat D) (Homo sapiens (Human), UniProt P07339). Put plainly: In vitro enzymatic Cathepsin D (Cat D) FRET assay. The format is biochemical. The following applies: read-out: CatD IC50. As for the experimental part: In Vitro Enzymatic Cathepsin D (Cat D) FRET (Fluorescence Resonance Energy Transfer) Assay
Recombinant Cat D was expressed in CHO cells. The assay buffer for CathepsinD is 0.05 M citrate pH 3.5, 10% DMSO final, 5 mM CHAPS. […] The assays are effectively started by the addition of different FRET substrates (20 nM for Cat D) and the combination is incubated for one hour. The FRET assay is terminated with by addition of Tris buffer, which raises the pH to neutrality, and the fluorescence is determined. The FRET substrate is a peptide with commercially available fluorophore and quencher, on opposite sides of the BACE cleavage site. […] Proteolytic cleavage of the FRET substrate releases quenching of fluorescence (Cat D excitation 500 nm and emission 580 nm).
In addition, the cathepsin D and cathepsin E assays are described in PCT publication WO2011069934.

Where [1] appears, read: average IC50, cathepsin D enzyme assay.

Like-named read-outs stand apart in the source and are kept apart here.

Cathepsin D (Cat D), sequence (P07339 65-412, species assumed): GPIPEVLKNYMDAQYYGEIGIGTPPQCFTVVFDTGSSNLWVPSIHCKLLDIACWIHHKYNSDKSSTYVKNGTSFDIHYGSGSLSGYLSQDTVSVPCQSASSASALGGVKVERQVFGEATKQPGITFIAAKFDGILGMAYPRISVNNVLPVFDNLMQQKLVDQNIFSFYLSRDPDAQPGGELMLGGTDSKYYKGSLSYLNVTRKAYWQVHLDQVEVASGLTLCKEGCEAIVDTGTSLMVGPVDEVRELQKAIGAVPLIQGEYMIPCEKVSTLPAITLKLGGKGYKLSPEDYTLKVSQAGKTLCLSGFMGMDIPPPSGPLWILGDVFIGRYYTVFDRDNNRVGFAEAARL

As to `C[C@@]1(c2cc(Nc3ncc(F)c4cc(C#N)cnc34)cnc2F)C[C@@H](C(F)(F)F)OC(N)=N1` [Example 78, 8-((5-((4S,6S)-2-amino-4-methyl-6-(trifluoromethyl)-5,6-dihydro-4H-1,3-oxazin-4-yl)-6-fluoropyridin-3-yl)amino)-5-fluoro-1,7-naphthyridine-3-carbonitrile], the concentration for half-maximal inhibition (IC50) (average IC50) was > 400 µM.

For the compound `COc1cnc(C(=O)Nc2ccc(F)c([C@]3(C)C[C@@H](C(F)(F)F)OC(N)=N3)n2)c(Cl)c1` [Example 80, N-(6-((4S,6S)-2-amino-4-methyl-6-(trifluoromethyl)-5,6-dihydro-4H-1,3-oxazin-4-yl)-5-fluoropyridin-2-yl)-3-chloro-5-methoxypicolinamide], under setting [1], the 50% inhibitory concentration (IC50) came out at 658 µM.

Turning to `C[C@@]1(c2nc(NC(=O)c3ncc(C(F)(F)F)cc3Cl)ccc2F)C[C@@H](C(F)(F)F)OC(N)=N1` [Example 81, N-(6-((4S,6S)-2-amino-4-methyl-6-(trifluoromethyl)-5,6-dihydro-4H-1,3-oxazin-4-yl)-5-fluoropyridin-2-yl)-3-chloro-5-(trifluoromethyl)-picolinamide], the IC50 (average IC50) is > 400 µM.

On to `C[C@@]1(c2nc(NC(=O)c3ncc(C#N)cc3Cl)ccc2F)C[C@@H](C(F)(F)F)OC(N)=N1` [Example 82, N-(6-((4S,6S)-2-amino-4-methyl-6-(trifluoromethyl)-5,6-dihydro-4H-1,3-oxazin-4-yl)-5-fluoropyridin-2-yl)-3-chloro-5-cyanopicolinamide], for which the half-inhibitory concentration (IC50) (average IC50) is > 400 µM.

For the compound `Cc1cc(C#N)cnc1C(=O)Nc1ccc(F)c([C@]2(C)C[C@@H](C(F)(F)F)OC(N)=N2)n1` [Example 84, N-(6-((4S,6S)-2-amino-4-methyl-6-(trifluoromethyl)-5,6-dihydro-4H-1,3-oxazin-4-yl)-5-fluoropyridin-2-yl)-5-cyano-3-methylpicolinamide], the IC50 (average IC50) was determined as 900 µM.

As to `C[C@@]1(c2nc(NC(=O)c3ncc(Br)cc3Cl)ccc2F)C[C@@H](C(F)(F)F)OC(N)=N1` [Example 86, N-(6-((4S,6S)-2-amino-4-methyl-6-(trifluoromethyl)-5,6-dihydro-4H-1,3-oxazin-4-yl)-5-fluoropyridin-2-yl)-5-bromo-3-chloropicolinamide], the half-inhibitory concentration (IC50) (average IC50) worked out at 636 µM.

Consider `C[C@@]1(c2nc(Nc3ncc(F)c4cc(C#N)cnc34)ccc2F)C[C@@H](C(F)(F)F)OC(N)=N1` [Example 89, 8-((6-((4S,6S)-2-amino-4-methyl-6-(trifluoromethyl)-5,6-dihydro-4H-1,3-oxazin-4-yl)-5-fluoropyridin-2-yl)amino)-5-fluoro-1,7-naphthyridine-3-carbonitrile], for which, under “average IC50”, the IC50 was 229 µM.

For `NC1=N[C@](CF)(c2cc(NC(=S)c3ccc(Cl)cn3)ccc2F)C[C@@H](C(F)(F)F)O1` [Example 91, N-(3-((4S,6S)-2-amino-4-(fluoromethyl)-6-(trifluoromethyl)-5,6-dihydro-4H-1,3-oxazin-4-yl)-4-fluorophenyl)-5-chloropyridine-2-carbothioamide], the half-maximal inhibitory concentration (IC50) (average) stood at 805 µM.

With `NC1=N[C@](CF)(c2cc(Oc3ncccc3F)ccc2F)C[C@@H](C(F)(F)F)O1` [Example 94], where the note is “average IC50”, the concentration for half-maximal inhibition (IC50) stood at 2220 µM.

For `CNC(=O)c1ccnc(Oc2ccc(F)c([C@]3(CF)C[C@@H](C(F)(F)F)OC(N)=N3)c2)c1` [Example 96, 2-(3-((4S,6S)-2-amino-4-(fluoromethyl)-6-(trifluoromethyl)-5,6-dihydro-4H-1,3-oxazin-4-yl)-4-fluorophenoxy)-N-methylisonicotinamide], where the note is “average IC50”, the IC50 was > 400 µM.

As to `NC1=N[C@](CF)(c2cc(Oc3ncccc3Cl)ccc2F)C[C@@H](C(F)(F)F)O1` [Example 97, (4S,6S)-4-(5-((3-chloropyridin-2-yl)oxy)-2-fluorophenyl)-4-(fluoromethyl)-6-(trifluoromethyl)-5,6-dihydro-4H-1,3-oxazin-2-amine], the 50% inhibitory concentration (IC50) (average IC50) came out at 1010 µM.

With `NC1=N[C@](CF)(c2cc(Oc3cc(C(F)(F)F)ccn3)ccc2F)C[C@@H](C(F)(F)F)O1` [Example 99, (4S,6S)-4-(2-Fluoro-5-((4-(trifluoromethyl)pyridin-2-yl)oxy)phenyl)-4-(fluoromethyl)-6-(trifluoromethyl)-5,6-dihydro-4H-1,3-oxazin-2-amine], the half-maximal inhibitory concentration (IC50) (average IC50) is > 400 µM.

As for `NC1=N[C@](CF)(c2cc(Oc3ccccn3)ccc2F)C[C@@H](C(F)(F)F)O1` [Example 101, (4S,6S)-4-(2-fluoro-5-(pyridin-2-yloxy)phenyl)-4-(fluoromethyl)-6-(trifluoromethyl)-5,6-dihydro-4H-1,3-oxazin-2-amine], the IC50 under setting [1] was > 400 µM.

For `N#Cc1cncc(-c2ccc(F)c([C@]3(CF)C[C@@H](C(F)(F)F)OC(N)=N3)c2)c1` [Example 103, 5-(3-((4S,6S)-2-amino-4-(fluoromethyl)-6-(trifluoromethyl)-5,6-dihydro-4H-1,3-oxazin-4-yl)-4-fluorophenyl)nicotinonitrile], under “average IC50”, the IC50 stood at 129 µM.

`CC#Cc1cncc(-c2ccc(F)c([C@]3(CF)C[C@@H](C(F)(F)F)OC(N)=N3)c2)c1` [Example 104, (4S,6S)-4-(2-fluoro-5-(5-(prop-1-yn-1-yl)pyridin-3-yl)phenyl)-4-(fluoromethyl)-6-(trifluoromethyl)-5,6-dihydro-4H-1,3-oxazin-2-amine]: the IC50 under setting [1] stood at 220 µM.

`C#CCOC1CCN(C(=O)Nc2ccc(F)c([C@]3(C)C[C@@H](C(F)(F)F)OC(N)=N3)c2)CC1` [Example 120, N-(3-((4S,6S)-2-amino-4-methyl-6-(trifluoromethyl)-5,6-dihydro-4H-1,3-oxazin-4-yl)-4-fluorophenyl)-4-(prop-2-yn-1-yloxy)piperidine-1-carboxamide]: the 50% inhibitory concentration (IC50) under setting [1] is > 400 µM.

As to `C[C@@]1(c2cc(NC(=O)N3CCc4ccccc4C3)ccc2F)C[C@@H](C(F)(F)F)OC(N)=N1` [Example 121, N-(3-((4S,6S)-2-amino-4-methyl-6-(trifluoromethyl)-5,6-dihydro-4H-1,3-oxazin-4-yl)-4-fluorophenyl)-3,4-dihydroisoquinoline-2(1H)-carboxamide], the IC50 under setting [1] was 3610 µM.

`C[C@@]1(c2cc(NC(=O)N3CCC(C(F)F)CC3)ccc2F)C[C@@H](C(F)(F)F)OC(N)=N1` [Example 122, N-(3-((4S,6S)-2-amino-4-methyl-6-(trifluoromethyl)-5,6-dihydro-4H-1,3-oxazin-4-yl)-4-fluorophenyl)-4-(difluoromethyl)piperidine-1-carboxamide]: the half-inhibitory concentration (IC50) under setting [1] is > 14.8 µM.

For `C[C@@]1(c2cc(NC(=O)N3CC=C(C#CC4CC4)CC3)ccc2F)C[C@@H](C(F)(F)F)OC(N)=N1` [Example 124, N-(3-((4S,6S)-2-amino-4-methyl-6-(trifluoromethyl)-5,6-dihydro-4H-1,3-oxazin-4-yl)-4-fluorophenyl)-4-(cyclopropylethynyl)-5,6-dihydropyridine-1(2H)-carboxamide], the IC50 under setting [1] was 810 µM.

Consider `NC1=N[C@](CF)(c2cc(C#Cc3ccc(OC(F)F)cn3)ccc2F)C[C@@H](C(F)(F)F)O1` [Example 127, (4S,6S)-4-(5-((5-(difluoromethoxy)pyridin-2-yl)ethynyl)-2-fluorophenyl)-4-(fluoromethyl)-6-(trifluoromethyl)-5,6-dihydro-4H-1,3-oxazin-2-amine], for which the IC50 (average) was found to be 605 µM.

As to `COc1ccc(C(=O)Nc2cccc([C@]3(CF)C[C@@H](C(F)(F)F)OC(N)=N3)c2)nc1` [Example 145, N-(3-((4S,6S)-2-amino-4-(fluoromethyl)-6-(trifluoromethyl)-5,6-dihydro-4H-1,3-oxazin-4-yl)phenyl)-5-methoxypicolinamide], the IC50 (average IC50) came out at 3520 µM.

For `NC1=N[C@](CF)(c2cc(NC(=O)c3ccc(Br)cn3)cc(F)c2F)C[C@@H](C(F)(F)F)O1` [Example 157, N-(3-((4S,6S)-2-amino-4-(fluoromethyl)-6-(trifluoromethyl)-5,6-dihydro-4H-1,3-oxazin-4-yl)-4,5-difluorophenyl)-5-bromopicolinamide], under setting [1], the IC50 is > 400 µM.

With `NC1=N[C@](CF)(c2cc(NC(=O)c3ccc(C#CC4CC4)cn3)cc(F)c2F)C[C@@H](C(F)(F)F)O1` [Example 158, N-(3-((4S,6S)-2-amino-4-(fluoromethyl)-6-(trifluoromethyl)-5,6-dihydro-4H-1,3-oxazin-4-yl)-4,5-difluorophenyl)-5-(cyclopropylethynyl)picolinamide], the IC50 under setting [1] was > 400 µM.

In the case of `CC#CCOc1ccc(C(=O)Nc2cc(F)c(F)c([C@]3(CF)C[C@@H](C(F)(F)F)OC(N)=N3)c2)nc1` [Example 160, N-(3-((4S,6S)-2-amino-4-(fluoromethyl)-6-(trifluoromethyl)-5,6-dihydro-4H-1,3-oxazin-4-yl)-4,5-difluorophenyl)-5-(but-2-yn-1-yloxy)picolinamide], the IC50 under setting [1] is > 400 µM.

In the case of `N#Cc1cnc2c(Nc3cc(F)c(F)c([C@]4(CF)C[C@@H](C(F)(F)F)OC(N)=N4)c3)nccc2c1` [Example 162, 8-((3-((4S,6S)-2-amino-4-(fluoromethyl)-6-(trifluoromethyl)-5,6-dihydro-4H-1,3-oxazin-4-yl)-4,5-difluorophenyl)amino)-1,7-naphthyridine-3-carbonitrile], the IC50 under setting [1] is > 400 µM.

For the compound `Cc1cc(OC(F)F)cnc1C(=O)Nc1cc(F)c(F)c([C@]2(C)C[C@@H](C(F)(F)F)OC(N)=N2)c1` [Example 174, N-(3-((4S,6S)-2-amino-4-methyl-6-(trifluoromethyl)-5,6-dihydro-4H-1,3-oxazin-4-yl)-4,5-difluorophenyl)-5-(difluoromethoxy)-3-methylpicolinamide], the IC50 (average) was > 400 µM.

These data come from US9296734B2 (AMGEN INC., priority 2013, dated 2016).
